PMC9856672, “SGC-CAMKK2-1: A Chemical Probe for CAMKK2” (Cells, 2023)

How the values were obtained:
FLT3-autoinhibited = target: T1, FLT3-autoinhibited (Homo sapiens, UniProt P36888); assay: KINOMEscan 1 μM, FLT3-autoinhibited; format: binding; details: 1000 nM; Entrez FLT3; read-out: Percent Control
T1 construct: purchased Eurofins DiscoverX KINOMEscan
From the text: (§1) Supplement cells-12-00287-s001.zip/File S2. KinomeScan data for the CAMKK2 probe and negative control.xlsx, sheet "SGC-CAMKK2-1" | column: Percent Control

DCAMKL3 = target: T2, DCAMKL3 (Homo sapiens, UniProt Q9C098); assay: KINOMEscan 1 μM, DCAMKL3; format: binding; details: 1000 nM; Entrez DCLK3; read-out: Percent Control
T2 construct: purchased Eurofins DiscoverX KINOMEscan
From the text: as §1

MKNK2 = target: T3, MKNK2 (Homo sapiens, UniProt Q9HBH9); assay: KINOMEscan 1 μM, MKNK2; format: binding; details: 1000 nM; Entrez MKNK2; read-out: Percent Control
T3 construct: purchased Eurofins DiscoverX KINOMEscan
From the text: as §1

STK16 = target: T4, STK16 (Homo sapiens, UniProt O75716); assay: KINOMEscan 1 μM, STK16; format: binding; details: 1000 nM; Entrez STK16; read-out: Percent Control
T4 construct: purchased Eurofins DiscoverX KINOMEscan
From the text: as §1

DYRK1A = target: T5, DYRK1A (Homo sapiens, UniProt Q13627); assay: KINOMEscan 1 μM, DYRK1A; format: binding; details: 1000 nM; Entrez DYRK1A; read-out: Percent Control
T5 construct: purchased Eurofins DiscoverX KINOMEscan
From the text: as §1

ABL1-nonphosphorylated = target: T6, ABL1-nonphosphorylated (Homo sapiens, UniProt P00519); assay: KINOMEscan 1 μM, ABL1-nonphosphorylated; format: binding; details: 1000 nM; Entrez ABL1; read-out: Percent Control
T6 construct: purchased Eurofins DiscoverX KINOMEscan
From the text: as §1

ULK2 = target: T7, ULK2 (Homo sapiens, UniProt Q8IYT8); assay: DiscoverX KINOMEscan binding assay at 1 μM, ULK2; details: Compound Concentration 1000 nM, read-out: Percent Control
T7 construct: purchased Eurofins DiscoverX KINOMEscan
From the text: as §1

[1] = target: T8, RSK4(Kin.Dom.2-C-terminal) (Homo sapiens, UniProt Q9UK32); assay: DiscoverX KINOMEscan binding assay at 1 μM, RSK4(Kin.Dom.2-C-terminal); details: RSK4(Kin.Dom.2-C-terminal) (RPS6KA6); Compound Concentration 1000 nM; read-out: Percent Control
T8 construct: RSK4(Kin.Dom.2-C-terminal); purchased Eurofins DiscoverX KINOMEscan
From the text: as §1

PRKD3 = target: T9, PRKD3 (Homo sapiens, UniProt O94806); assay: KINOMEscan 1 μM, PRKD3; format: binding; details: 1000 nM; Entrez PRKD3; read-out: Percent Control
T9 construct: purchased Eurofins DiscoverX KINOMEscan
From the text: as §1

EPHB1 = target: T10, EPHB1 (Homo sapiens, UniProt P54762); assay: KINOMEscan 1 μM, EPHB1; format: binding; details: 1000 nM; Entrez EPHB1; read-out: Percent Control
T10 construct: purchased Eurofins DiscoverX KINOMEscan
From the text: as §1

JNK3 = target: T11, JNK3 (Homo sapiens, UniProt P53779); assay: KINOMEscan 1 μM, JNK3; format: binding; details: 1000 nM; Entrez MAPK10; read-out: Percent Control
T11 construct: purchased Eurofins DiscoverX KINOMEscan
From the text: as §1

PKAC-alpha = target: T12, PKAC-alpha (Homo sapiens, UniProt P17612); assay: DiscoverX KINOMEscan binding assay at 1 μM, PKAC-alpha; details: PKAC-alpha (PRKACA); Compound Concentration 1000 nM; read-out: Percent Control
T12 construct: purchased Eurofins DiscoverX KINOMEscan
From the text: as §1

RIPK4 = target: T13, RIPK4 (Homo sapiens, UniProt P57078); assay: DiscoverX KINOMEscan binding assay at 1 μM, RIPK4; details: Compound Concentration 1000 nM, read-out: Percent Control
T13 construct: purchased Eurofins DiscoverX KINOMEscan
From the text: as §1

PIM3 = target: T14, PIM3 (Homo sapiens, UniProt Q86V86); assay: KINOMEscan 1 μM, PIM3; format: binding; details: 1000 nM; Entrez PIM3; read-out: Percent Control
T14 construct: purchased Eurofins DiscoverX KINOMEscan
From the text: as §1

WNK2 = target: T15, WNK2 (Homo sapiens, UniProt Q9Y3S1); assay: KINOMEscan 1 μM, WNK2; format: binding; details: 1000 nM; Entrez WNK2; read-out: Percent Control
T15 construct: purchased Eurofins DiscoverX KINOMEscan
From the text: as §1

[2] = target: T16, TYK2(JH1domain-catalytic) (Homo sapiens, UniProt P29597); assay: DiscoverX KINOMEscan binding assay at 1 μM, TYK2(JH1domain-catalytic); details: Compound Concentration 1000 nM, read-out: Percent Control
T16 construct: TYK2(JH1domain-catalytic); purchased Eurofins DiscoverX KINOMEscan
From the text: as §1

TRPM6 = target: T17, TRPM6 (Homo sapiens, UniProt Q9BX84); assay: DiscoverX KINOMEscan binding assay at 1 μM, TRPM6; details: Compound Concentration 1000 nM, read-out: Percent Control
T17 construct: purchased Eurofins DiscoverX KINOMEscan
From the text: as §1

TESK1 = target: T18, TESK1 (Homo sapiens, UniProt Q15569); assay: DiscoverX KINOMEscan binding assay at 1 μM, TESK1; details: Compound Concentration 1000 nM, read-out: Percent Control
T18 construct: purchased Eurofins DiscoverX KINOMEscan
From the text: as §1

CDK3 = target: T19, CDK3 (Homo sapiens, UniProt Q00526); assay: KINOMEscan 1 μM, CDK3; format: binding; details: 1000 nM; Entrez CDK3; read-out: Percent Control
T19 construct: purchased Eurofins DiscoverX KINOMEscan
From the text: as §1

BMPR1B = target: T20, BMPR1B (Homo sapiens, UniProt O00238); assay: KINOMEscan at 1 μM, BMPR1B; format: binding; details: 1000 nM, read-out: Percent Control
T20 construct: purchased Eurofins DiscoverX KINOMEscan
From the text: (§2) Supplement cells-12-00287-s001.zip/File S2. KinomeScan data for the CAMKK2 probe and negative control.xlsx, sheet "SGC-CAMKK2-1N" | column: Percent Control

p38-alpha = target: T21, p38-alpha (Homo sapiens, UniProt Q16539); assay: KINOMEscan at 1 μM, p38-alpha; format: binding; details: 1000 nM, read-out: Percent Control
T21 construct: purchased Eurofins DiscoverX KINOMEscan
From the text: as §2

CDK4 = target: T22, CDK4 (Homo sapiens, UniProt P11802); assay: KINOMEscan at 1 μM, CDK4; format: binding; details: 1000 nM, read-out: Percent Control
T22 construct: purchased Eurofins DiscoverX KINOMEscan
From the text: as §2

PDGFRB = target: T23, PDGFRB (Homo sapiens, UniProt P09619); assay: KINOMEscan at 1 μM, PDGFRB; format: binding; details: 1000 nM, read-out: Percent Control
T23 construct: purchased Eurofins DiscoverX KINOMEscan
From the text: as §2

PKNB(M.tuberculosis) = target: T24, PKNB(M.tuberculosis) (Mycobacterium tuberculosis, UniProt P9WI81); assay: KINOMEscan at 1 μM, PKNB(M.tuberculosis); format: binding; details: 1000 nM, read-out: Percent Control
T24 construct: purchased Eurofins DiscoverX KINOMEscan
From the text: as §2

CDC2L1 = target: T25, CDC2L1 (Homo sapiens, UniProt P21127); assay: KINOMEscan at 1 μM, CDC2L1; format: binding; details: 1000 nM, read-out: Percent Control
T25 construct: purchased Eurofins DiscoverX KINOMEscan
From the text: as §2

FLT3(D835Y) = target: T26, FLT3(D835Y) (Homo sapiens, UniProt P36888, D835Y); assay: KINOMEscan binding assay at 1 μM, FLT3(D835Y); details: Compound Concentration 1000 nM; read-out: Percent Control
T26 construct: purchased Eurofins DiscoverX KINOMEscan
From the text: as §2

FLT3(N841I) = target: T27, FLT3(N841I) (Homo sapiens, UniProt P36888, N841I); assay: KINOMEscan binding assay at 1 μM, FLT3(N841I); details: Compound Concentration 1000 nM; read-out: Percent Control
T27 construct: purchased Eurofins DiscoverX KINOMEscan
From the text: as §2

TXK = target: T28, TXK (Homo sapiens, UniProt P42681); assay: KINOMEscan at 1 μM, TXK; format: binding; details: 1000 nM, read-out: Percent Control
T28 construct: purchased Eurofins DiscoverX KINOMEscan
From the text: as §2

PDPK1 = target: T29, PDPK1 (Homo sapiens, UniProt O15530); assay: KINOMEscan binding assay at 1 μM, PDPK1; details: Compound Concentration 1000 nM; read-out: Percent Control
T29 construct: purchased Eurofins DiscoverX KINOMEscan
From the text: as §2

WEE2 = target: T30, WEE2 (Homo sapiens, UniProt P0C1S8); assay: KINOMEscan at 1 μM, WEE2; format: binding; details: 1000 nM, read-out: Percent Control
T30 construct: purchased Eurofins DiscoverX KINOMEscan
From the text: as §2

PIK4CB = target: T31, PIK4CB (Homo sapiens, UniProt Q9UBF8); assay: KINOMEscan at 1 μM, PIK4CB; format: binding; details: 1000 nM, read-out: Percent Control
T31 construct: purchased Eurofins DiscoverX KINOMEscan
From the text: as §2

PIK3CG = target: T32, PIK3CG (Homo sapiens, UniProt P48736); assay: KINOMEscan at 1 μM, PIK3CG; format: binding; details: 1000 nM, read-out: Percent Control
T32 construct: purchased Eurofins DiscoverX KINOMEscan
From the text: as §2

NLK = target: T33, NLK (Homo sapiens, UniProt Q9UBE8); assay: KINOMEscan at 1 μM, NLK; format: binding; details: 1000 nM, read-out: Percent Control
T33 construct: purchased Eurofins DiscoverX KINOMEscan
From the text: as §2

T25 sequence (P21127 whole entry): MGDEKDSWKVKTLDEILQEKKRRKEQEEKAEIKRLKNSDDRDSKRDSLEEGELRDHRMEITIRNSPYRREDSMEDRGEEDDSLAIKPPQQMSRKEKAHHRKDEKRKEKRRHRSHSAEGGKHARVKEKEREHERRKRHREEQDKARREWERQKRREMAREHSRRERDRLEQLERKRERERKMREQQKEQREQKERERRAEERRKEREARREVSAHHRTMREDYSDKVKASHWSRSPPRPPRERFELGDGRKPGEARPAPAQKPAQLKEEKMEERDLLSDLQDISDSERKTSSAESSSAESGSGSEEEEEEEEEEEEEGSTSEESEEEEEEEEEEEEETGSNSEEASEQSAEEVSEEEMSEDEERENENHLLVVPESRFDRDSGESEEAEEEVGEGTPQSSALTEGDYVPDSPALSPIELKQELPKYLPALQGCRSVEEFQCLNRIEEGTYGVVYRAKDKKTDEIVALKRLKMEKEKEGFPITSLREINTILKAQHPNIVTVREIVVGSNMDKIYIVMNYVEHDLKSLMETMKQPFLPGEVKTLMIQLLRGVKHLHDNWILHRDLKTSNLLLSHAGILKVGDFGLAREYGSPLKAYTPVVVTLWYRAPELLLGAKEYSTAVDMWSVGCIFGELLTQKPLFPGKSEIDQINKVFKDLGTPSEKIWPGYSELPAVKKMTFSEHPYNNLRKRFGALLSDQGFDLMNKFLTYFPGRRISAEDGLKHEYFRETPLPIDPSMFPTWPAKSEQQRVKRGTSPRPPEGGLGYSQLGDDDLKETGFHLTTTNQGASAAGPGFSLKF
T13 sequence (P57078 whole entry): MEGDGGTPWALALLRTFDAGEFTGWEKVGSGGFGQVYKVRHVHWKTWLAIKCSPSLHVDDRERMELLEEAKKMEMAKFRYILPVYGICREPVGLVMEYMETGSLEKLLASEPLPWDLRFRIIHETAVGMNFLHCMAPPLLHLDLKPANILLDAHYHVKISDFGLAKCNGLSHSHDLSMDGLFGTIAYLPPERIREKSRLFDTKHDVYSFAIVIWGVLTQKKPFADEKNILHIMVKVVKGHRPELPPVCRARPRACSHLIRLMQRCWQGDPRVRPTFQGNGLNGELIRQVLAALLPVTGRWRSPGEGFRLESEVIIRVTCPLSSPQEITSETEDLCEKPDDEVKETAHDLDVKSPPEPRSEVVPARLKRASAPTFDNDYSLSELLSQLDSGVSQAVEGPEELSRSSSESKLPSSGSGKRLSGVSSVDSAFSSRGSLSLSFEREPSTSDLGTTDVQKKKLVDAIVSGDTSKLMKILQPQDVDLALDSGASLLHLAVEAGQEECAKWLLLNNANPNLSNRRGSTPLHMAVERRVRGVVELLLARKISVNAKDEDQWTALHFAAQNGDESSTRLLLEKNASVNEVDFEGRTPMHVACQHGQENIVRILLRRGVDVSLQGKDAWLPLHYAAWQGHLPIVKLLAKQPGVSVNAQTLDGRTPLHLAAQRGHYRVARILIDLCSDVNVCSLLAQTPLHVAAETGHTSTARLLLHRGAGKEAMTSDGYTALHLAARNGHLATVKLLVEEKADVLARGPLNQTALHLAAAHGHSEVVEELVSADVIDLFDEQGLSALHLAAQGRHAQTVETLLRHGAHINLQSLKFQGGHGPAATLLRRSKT
T3 sequence (Q9HBH9 whole entry): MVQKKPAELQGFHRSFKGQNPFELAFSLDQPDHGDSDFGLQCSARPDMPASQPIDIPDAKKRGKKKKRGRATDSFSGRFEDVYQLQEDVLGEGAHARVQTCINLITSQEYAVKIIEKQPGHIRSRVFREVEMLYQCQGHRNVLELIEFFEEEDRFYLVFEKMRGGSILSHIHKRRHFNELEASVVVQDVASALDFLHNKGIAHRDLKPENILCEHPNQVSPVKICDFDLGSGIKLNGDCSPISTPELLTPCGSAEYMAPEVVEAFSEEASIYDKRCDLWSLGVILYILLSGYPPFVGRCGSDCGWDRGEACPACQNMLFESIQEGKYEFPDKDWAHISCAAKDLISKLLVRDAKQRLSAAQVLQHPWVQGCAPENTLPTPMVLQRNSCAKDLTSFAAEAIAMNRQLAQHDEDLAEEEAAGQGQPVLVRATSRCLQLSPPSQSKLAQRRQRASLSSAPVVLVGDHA
T8 sequence (Q9UK32 401-745 limits assumed): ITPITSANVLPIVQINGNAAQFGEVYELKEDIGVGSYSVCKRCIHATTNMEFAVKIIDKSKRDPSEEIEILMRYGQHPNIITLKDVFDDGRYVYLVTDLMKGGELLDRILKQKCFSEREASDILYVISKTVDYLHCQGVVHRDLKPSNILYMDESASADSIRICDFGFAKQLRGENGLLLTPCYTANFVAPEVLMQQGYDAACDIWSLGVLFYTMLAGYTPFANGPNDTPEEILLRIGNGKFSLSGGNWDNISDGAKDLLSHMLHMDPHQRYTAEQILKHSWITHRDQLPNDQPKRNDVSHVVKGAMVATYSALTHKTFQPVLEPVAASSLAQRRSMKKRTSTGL
T11 sequence (P53779 whole entry): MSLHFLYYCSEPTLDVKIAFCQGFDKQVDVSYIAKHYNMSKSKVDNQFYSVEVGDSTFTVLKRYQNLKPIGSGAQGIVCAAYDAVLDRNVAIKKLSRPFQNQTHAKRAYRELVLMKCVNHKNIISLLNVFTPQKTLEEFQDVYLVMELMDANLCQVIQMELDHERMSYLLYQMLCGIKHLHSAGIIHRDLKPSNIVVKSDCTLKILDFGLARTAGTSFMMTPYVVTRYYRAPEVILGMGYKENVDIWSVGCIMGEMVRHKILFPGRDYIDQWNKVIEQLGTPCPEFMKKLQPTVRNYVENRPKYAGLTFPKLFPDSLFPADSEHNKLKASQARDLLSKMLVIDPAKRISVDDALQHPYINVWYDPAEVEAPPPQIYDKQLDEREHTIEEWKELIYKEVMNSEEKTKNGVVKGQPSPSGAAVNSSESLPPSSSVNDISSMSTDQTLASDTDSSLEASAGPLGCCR
T21 sequence (Q16539 whole entry): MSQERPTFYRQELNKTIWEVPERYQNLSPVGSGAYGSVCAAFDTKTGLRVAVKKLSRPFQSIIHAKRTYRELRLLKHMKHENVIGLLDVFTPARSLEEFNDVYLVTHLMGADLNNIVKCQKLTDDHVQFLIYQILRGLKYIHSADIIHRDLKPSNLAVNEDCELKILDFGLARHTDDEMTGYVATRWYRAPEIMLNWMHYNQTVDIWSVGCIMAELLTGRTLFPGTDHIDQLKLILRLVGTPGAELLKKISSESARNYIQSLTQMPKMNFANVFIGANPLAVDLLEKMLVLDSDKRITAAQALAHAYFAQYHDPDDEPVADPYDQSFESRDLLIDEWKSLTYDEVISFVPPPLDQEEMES
T24 sequence (P9WI81 whole entry): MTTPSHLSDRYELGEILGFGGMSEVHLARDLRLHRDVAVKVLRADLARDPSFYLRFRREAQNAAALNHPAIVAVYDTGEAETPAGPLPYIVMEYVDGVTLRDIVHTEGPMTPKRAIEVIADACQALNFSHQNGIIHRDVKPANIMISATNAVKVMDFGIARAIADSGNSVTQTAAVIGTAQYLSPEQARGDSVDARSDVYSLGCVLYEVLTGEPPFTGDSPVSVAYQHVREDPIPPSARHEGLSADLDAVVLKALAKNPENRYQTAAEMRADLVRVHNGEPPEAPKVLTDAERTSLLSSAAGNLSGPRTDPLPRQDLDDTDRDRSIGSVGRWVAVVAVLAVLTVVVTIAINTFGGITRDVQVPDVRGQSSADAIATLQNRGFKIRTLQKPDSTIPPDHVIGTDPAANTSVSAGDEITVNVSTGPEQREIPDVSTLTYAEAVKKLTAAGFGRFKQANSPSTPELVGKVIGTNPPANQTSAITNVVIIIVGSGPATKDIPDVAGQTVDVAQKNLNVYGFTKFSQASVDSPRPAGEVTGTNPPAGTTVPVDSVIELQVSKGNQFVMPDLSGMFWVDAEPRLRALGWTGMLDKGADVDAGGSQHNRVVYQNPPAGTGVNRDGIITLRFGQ
T29 sequence (O15530 whole entry): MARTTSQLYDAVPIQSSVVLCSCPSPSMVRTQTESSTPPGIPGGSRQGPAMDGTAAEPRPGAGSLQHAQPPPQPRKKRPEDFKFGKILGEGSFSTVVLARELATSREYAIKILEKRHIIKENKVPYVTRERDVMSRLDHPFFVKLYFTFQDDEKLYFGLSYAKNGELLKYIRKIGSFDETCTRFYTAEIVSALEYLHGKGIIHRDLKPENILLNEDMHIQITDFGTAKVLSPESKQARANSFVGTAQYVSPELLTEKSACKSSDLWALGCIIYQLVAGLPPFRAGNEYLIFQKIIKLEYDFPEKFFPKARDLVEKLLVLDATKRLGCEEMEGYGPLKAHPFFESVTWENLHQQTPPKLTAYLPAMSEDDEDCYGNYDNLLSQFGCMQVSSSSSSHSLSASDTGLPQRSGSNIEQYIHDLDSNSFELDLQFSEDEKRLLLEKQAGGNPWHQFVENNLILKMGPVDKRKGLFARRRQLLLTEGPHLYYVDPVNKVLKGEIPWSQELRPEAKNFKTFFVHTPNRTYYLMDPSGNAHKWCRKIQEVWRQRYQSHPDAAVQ
T16 sequence (P29597 871-1187 limits assumed): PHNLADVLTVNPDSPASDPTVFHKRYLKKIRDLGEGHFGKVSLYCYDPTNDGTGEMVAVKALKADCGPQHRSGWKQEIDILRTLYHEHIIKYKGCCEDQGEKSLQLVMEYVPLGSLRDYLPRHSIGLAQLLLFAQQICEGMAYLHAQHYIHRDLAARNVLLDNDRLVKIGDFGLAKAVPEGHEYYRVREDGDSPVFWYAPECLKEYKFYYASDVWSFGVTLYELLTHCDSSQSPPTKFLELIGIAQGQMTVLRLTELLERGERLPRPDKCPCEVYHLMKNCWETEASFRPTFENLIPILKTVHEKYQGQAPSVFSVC

## Cc1cccc(-c2cnc3occ(-c4ccc(C(=O)O)c(C5CCCC5)c4)c3c2)c1 [SGC-CAMKK2-1 (YL-36)]
FLT3-autoinhibited
  remaining binding at 1 µM: 100%
DCAMKL3
  remaining binding at 1 µM: 100%
MKNK2
  remaining binding at 1 µM: 100%
STK16
  remaining binding at 1 µM: 93%
DYRK1A
  remaining binding at 1 µM: 100%
ABL1-nonphosphorylated
  remaining binding at 1 µM: 95%
ULK2
  remaining binding at 1 µM: 100%
[1]
  remaining binding at 1 µM: 100%
PRKD3
  remaining binding at 1 µM: 77%
EPHB1
  remaining binding at 1 µM: 100%
JNK3
  remaining binding at 1 µM: 100%
PKAC-alpha
  remaining binding at 1 µM: 100%
RIPK4
  remaining binding at 1 µM: 100%
PIM3
  remaining binding at 1 µM: 77%
WNK2
  remaining binding at 1 µM: 67%
[2]
  remaining binding at 1 µM: 100%
TRPM6
  remaining binding at 1 µM: 100%
TESK1
  remaining binding at 1 µM: 100%
CDK3
  remaining binding at 1 µM: 59%

## O=C(O)c1ccc(-c2coc3ncc(-c4ccccc4)cc23)cc1Cl [SGC-CAMKK2-1N (UNC-YL-83)]
BMPR1B
  remaining binding at 1 µM: 65%
p38-alpha
  remaining binding at 1 µM: 79%
CDK4
  remaining binding at 1 µM: 82%
PDGFRB
  remaining binding at 1 µM: 92%
PKNB(M.tuberculosis)
  remaining binding at 1 µM: 83%
CDC2L1
  remaining binding at 1 µM: 72%
FLT3(D835Y)
  remaining binding at 1 µM: 100%
FLT3(N841I)
  remaining binding at 1 µM: 100%
TXK
  remaining binding at 1 µM: 53%
PDPK1
  remaining binding at 1 µM: 100%
WEE2
  remaining binding at 1 µM: 93%
PIK4CB
  remaining binding at 1 µM: 54%
PIK3CG
  remaining binding at 1 µM: 66%
NLK
  remaining binding at 1 µM: 84%
